In patent US11542313B2, “Incretin analogs and uses thereof” (Eli Lilly and Company, priority 2017, dated 2023):
Where two headings read alike, the source gives them in different places. *1 amine or outer side, *2 acyl side, *3 side chain or, on linkers, in order; H or OH if unused. Where a SMILES comes first, the peptide text is derived from it. Side-chain parts run from the residue outwards. [ ]: non-standard residue; d: D form. The star is where a group is joined. C20 diacid = O=C(O)CCCCCCCCCCCCCCCCCCC(=O)*; γGlu = O=C(O)[C@H](CCC(=O)[*:2])N[*:1]; AEEA = NCCOCCOCC(=O)O; Aib = CC(C)(N)C(=O)O

Columns and labels:
hGcgR = target: T1, hGcgR (Homo sapiens, UniProt P47871); test: cAMP assay in HEK293 cells expressing hGcgR, 0.1% casein; assay type: cell-based; conditions: in the presence of 0.1% casein; read-out: cAMP EC50, GcGR
T1 construct: expressed in transfected cells; host or cells: HEK293
T1 sequence (P47871 26-477): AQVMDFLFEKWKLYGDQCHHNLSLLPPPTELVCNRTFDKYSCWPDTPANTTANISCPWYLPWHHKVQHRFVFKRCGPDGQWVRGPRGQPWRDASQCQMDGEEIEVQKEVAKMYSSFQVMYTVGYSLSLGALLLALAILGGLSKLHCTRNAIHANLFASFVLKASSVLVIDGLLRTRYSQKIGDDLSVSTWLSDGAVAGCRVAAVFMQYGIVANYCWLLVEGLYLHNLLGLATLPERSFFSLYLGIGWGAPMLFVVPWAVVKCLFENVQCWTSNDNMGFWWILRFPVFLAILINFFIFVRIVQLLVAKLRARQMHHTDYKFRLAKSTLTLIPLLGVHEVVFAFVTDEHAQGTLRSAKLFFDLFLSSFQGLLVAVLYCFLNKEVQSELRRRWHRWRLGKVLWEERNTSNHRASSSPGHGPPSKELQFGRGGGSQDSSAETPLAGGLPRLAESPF

hGLP-1R = hGLP-1R (Homo sapiens, UniProt P43220); test: cAMP assay in HEK293 cells expressing hGLP-1R, 0.1% casein; assay type: cell-based; conditions: in the presence of 0.1% casein; read-out: cAMP EC50, GLP-1R
Chain of hGLP-1R (P43220 24-463): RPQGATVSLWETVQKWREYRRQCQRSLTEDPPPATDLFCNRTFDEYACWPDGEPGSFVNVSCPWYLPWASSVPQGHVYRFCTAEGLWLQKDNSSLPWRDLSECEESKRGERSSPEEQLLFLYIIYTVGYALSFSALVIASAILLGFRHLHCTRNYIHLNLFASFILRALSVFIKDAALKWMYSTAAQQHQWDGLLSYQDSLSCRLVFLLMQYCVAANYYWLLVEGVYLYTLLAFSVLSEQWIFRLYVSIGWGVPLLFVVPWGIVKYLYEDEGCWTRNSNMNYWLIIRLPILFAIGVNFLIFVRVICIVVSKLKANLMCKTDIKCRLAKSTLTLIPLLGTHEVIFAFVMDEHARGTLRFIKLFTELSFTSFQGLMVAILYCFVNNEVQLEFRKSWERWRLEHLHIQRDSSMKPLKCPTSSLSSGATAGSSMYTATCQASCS

hGIPR = target: T2, hGIPR (Homo sapiens, UniProt P48546); test: cAMP assay in HEK293 cells expressing hGIPR, 0.1% casein; assay type: cell-based; conditions: in the presence of 0.1% casein; read-out: cAMP EC50, GIPR
T2 construct: expressed in transfected cells; host or cells: HEK293
T2 sequence (P48546 22-466): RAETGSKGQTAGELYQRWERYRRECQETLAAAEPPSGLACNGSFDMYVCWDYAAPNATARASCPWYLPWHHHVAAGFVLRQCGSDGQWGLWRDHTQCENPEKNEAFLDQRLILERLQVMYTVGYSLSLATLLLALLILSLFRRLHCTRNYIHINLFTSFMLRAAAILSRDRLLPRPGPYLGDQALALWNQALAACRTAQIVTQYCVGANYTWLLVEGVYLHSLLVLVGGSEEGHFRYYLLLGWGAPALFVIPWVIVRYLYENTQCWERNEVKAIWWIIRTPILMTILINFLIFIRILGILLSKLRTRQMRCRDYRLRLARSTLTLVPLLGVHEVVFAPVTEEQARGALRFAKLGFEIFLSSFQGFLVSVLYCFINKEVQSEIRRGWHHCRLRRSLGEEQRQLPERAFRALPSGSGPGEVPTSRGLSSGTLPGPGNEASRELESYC

[1] = target: T3, human glucagon receptor (GcgR) (Homo sapiens, UniProt P47871); test: Radioligand competition binding (SPA), human GcgR membranes
T3 construct: expressed in transfected cells; host or cells: HEK293 (membranes)
T3 sequence (P47871 26-477): as the sequence (P47871 26-477) above
Source text: (§1) Radioligand competition binding assays are run to determine the equilibrium dissociation constant for exemplary compounds and comparator molecules.
(§2) Competition curves are plotted as the percent specific inhibition (y-axis) versus log concentration of compound (x-axis) and analyzed using a four parameter nonlinear regression fit with variable slope (ABase or Genedata).

GLP-1 receptor (GLP-1R) = target: T4, GLP-1 receptor (GLP-1R) (Homo sapiens, UniProt P43220); test: Radioligand competition binding (SPA), human GLP-1R membranes
T4 construct: expressed in transfected cells; host or cells: HEK293 (membranes)
T4 sequence (P43220 24-463): as the sequence (P43220 24-463) above
Source text: as §1, §2

[2] = target: T5, human GIP receptor (GIPR) (Homo sapiens, UniProt P48546); test: Radioligand competition binding (SPA), human GIPR membranes
T5 construct: expressed in transfected cells; host or cells: HEK293 (membranes)
T5 sequence (P48546 22-466): T2 sequence (P48546 22-466)
Source text: as §1, §2

[3] = Pharmacokinetics in male Sprague Dawley rats; conditions: for CL/F / Tmax / half-life: male, Sprague-Dawley, rat, plasma, sc, 100 nmol/kg; for AUCINF_D_obs / Cmax/D: single subcutaneous 100 nMol/kg, male Sprague Dawley rats, n = 3
Procedure: The pharmacokinetics of the exemplary analogs are evaluated following a single subcutaneous administration of 100 nM/kg to male Sprague Dawley rats. Blood samples are collected over 120 hours, and resulting individual plasma concentrations are used to calculate pharmacokinetic parameters. Peptide plasma (K3 EDTA) concentrations are determined using a qualified LC/MS method that measured the intact mass of the analog. Each peptide and an analog as an internal standard are extracted from 100% specie specified plasma using methanol with 0.1% formic acid. A Thermo Q-Exactive, High Resolution Instrument, and a Thermo Easy Spray PepMap are combined for LC/MS detection.

[4] = HEK293 membranes, SPA, bacitracin present, mean, read-out: Ki, GcgR
[5] = HEK293 membranes, SPA, bacitracin present, mean, read-out: Ki, GLP-1R
[6] = HEK293 membranes, SPA, bacitracin present, mean, read-out: Ki, GIPR

| Compound | EC50 (hGcgR) | EC50 (hGLP-1R) | EC50 (hGIPR) | Ki [1, 4] | Ki (GLP-1 receptor (GLP-1R); [5]) | Ki [2, 6] | CL/F [3] | Tmax [3] | half-life [3] | AUCINF_D_obs [3] | Cmax/D [3] | Ki [1] | Ki (GLP-1 receptor (GLP-1R)) | Ki [2] |
| --- | --- | --- | --- | --- | --- | --- | --- | --- | --- | --- | --- | --- | --- | --- |
| CC[C@H](C)[C@H](NC(=O)[C@H](Cc1ccccc1)NC(=O)[C@H](C)NC(=O)[C@](C)(CCCCN)NC(=O)[C@H](CCC(N)=O)NC(=O)[C@H](C)NC(=O)[C@H](CCCCNC(=O)COCCOCCNC(=O)COCCOCCNC(=O)CC[C@H](NC(=O)CCCCCCCCCCCCCCCCCCC(=O)O)C(=O)O)NC(=O)[C@H](CCCCN)NC(=O)[C@H](CC(=O)O)NC(=O)[C@H](CC(C)C)NC(=O)[C@H](CC(C)C)NC(=O)[C@@H](NC(=O)[C@H](CO)NC(=O)[C@H](Cc1ccc(O)cc1)NC(=O)[C@H](CC(=O)O)NC(=O)[C@H](CO)NC(=O)[C@@H](NC(=O)[C@H](Cc1ccccc1)NC(=O)[C@@H](NC(=O)CNC(=O)[C@H](CCC(N)=O)NC(=O)C(C)(C)NC(=O)[C@@H](N)Cc1ccc(O)cc1)[C@@H](C)O)[C@@H](C)O)[C@@H](C)CC)C(=O)N[C@@H](CCC(=O)O)C(=O)N[C@@H](Cc1ccc(O)cc1)C(=O)N[C@@H](CC(C)C)C(=O)N[C@@H](CC(C)C)C(=O)N[C@@H](CCC(=O)O)C(=O)NCC(=O)NCC(=O)N1CCC[C@H]1C(=O)N[C@@H](CO)C(=O)N[C@@H](CO)C(=O)NCC(=O)N[C@@H](C)C(=O)N1CCC[C@H]1C(=O)N1CCC[C@H]1C(=O)N1CCC[C@H]1C(=O)N[C@@H](CO)C(N)=O [Example 8] | 0.12 nM | 0.117 nM | 0.114 nM | 30.4 nM | 29.4 nM | 0.0958 nM |  |  |  |  |  |  |  |  |
| CC[C@H](C)[C@H](NC(=O)[C@H](Cc1ccccc1)NC(=O)[C@H](C)NC(=O)C(C)(C)NC(=O)[C@H](CCC(N)=O)NC(=O)[C@H](C)NC(=O)[C@H](CCCCNC(=O)COCCOCCNC(=O)CC[C@H](NC(=O)CCCCCCCCCCCCCCCCCCC(=O)O)C(=O)O)NC(=O)[C@H](CCCCN)NC(=O)[C@H](CC(=O)O)NC(=O)[C@H](CC(C)C)NC(=O)[C@H](CC(C)C)NC(=O)[C@@H](NC(=O)[C@H](CO)NC(=O)[C@H](Cc1ccc(O)cc1)NC(=O)[C@H](CC(=O)O)NC(=O)[C@H](CO)NC(=O)[C@@H](NC(=O)[C@H](Cc1ccccc1)NC(=O)[C@@H](NC(=O)CNC(=O)[C@H](CCC(N)=O)NC(=O)C(C)(C)NC(=O)[C@@H](N)Cc1ccc(O)cc1)[C@@H](C)O)[C@@H](C)O)[C@@H](C)CC)C(=O)N[C@@H](CCC(=O)O)C(=O)N[C@@H](Cc1ccc(O)cc1)C(=O)N[C@@H](CC(C)C)C(=O)N[C@@H](CC(C)C)C(=O)N[C@@H](CCC(=O)O)C(=O)NC(C)(C)C(=O)NCC(=O)N1CCC[C@H]1C(=O)N[C@@H](CO)C(=O)N[C@@H](CO)C(=O)NCC(=O)N[C@@H](C)C(=O)N1CCC[C@H]1C(=O)N1CCC[C@H]1C(=O)N1CCC[C@H]1C(=O)N[C@@H](CO)C(N)=O [Example 20] (H-Y[Aib]QGTFTSDYSILLDKK([AEEA-γGlu-C20 diacid])AQ[Aib]AFIEYLLE[Aib]GPSSGAPPPS-NH2; N-terminus assumed) | 0.0641 nM | 0.149 nM | 0.0572 nM | 3.76 nM | 9.23 nM | 0.109 nM |  |  |  |  |  |  |  |  |
| CC[C@H](C)[C@H](NC(=O)[C@H](Cc1ccccc1)NC(=O)[C@H](C)NC(=O)C(C)(C)NC(=O)[C@H](CCC(N)=O)NC(=O)[C@H](C)NC(=O)[C@H](CCCCNC(=O)COCCOCCNC(=O)COCCOCCNC(=O)CC[C@H](NC(=O)CCCCCCCCCCCCCCCCCCC(=O)O)C(=O)O)NC(=O)[C@H](CCCCN)NC(=O)[C@H](CC(=O)O)NC(=O)[C@H](CC(C)C)NC(=O)[C@H](CC(C)C)NC(=O)[C@@H](NC(=O)[C@H](CO)NC(=O)[C@H](Cc1ccc(O)cc1)NC(=O)[C@H](CC(=O)O)NC(=O)[C@H](CO)NC(=O)[C@@H](NC(=O)[C@H](Cc1ccccc1)NC(=O)[C@@H](NC(=O)CNC(=O)[C@H](CCC(N)=O)NC(=O)C(C)(C)NC(=O)[C@@H](N)Cc1ccc(O)cc1)[C@@H](C)O)[C@@H](C)O)[C@@H](C)CC)C(=O)N[C@@H](CCC(=O)O)C(=O)N[C@@H](Cc1ccc(O)cc1)C(=O)N[C@@H](CC(C)C)C(=O)N[C@@H](CC(C)C)C(=O)N[C@@H](CCC(=O)O)C(=O)NC(C)(C)C(=O)NCC(=O)N1CCC[C@H]1C(=O)N[C@@H](CO)C(=O)N[C@@H](CO)C(=O)NCC(=O)N[C@@H](C)C(=O)N1CCC[C@H]1C(=O)N1CCC[C@H]1C(=O)N1CCC[C@H]1C(=O)N[C@@H](CO)C(N)=O [Example 17] (H-Y[Aib]QGTFTSDYSILLDKK([AEEA-AEEA-γGlu-C20 diacid])AQ[Aib]AFIEYLLE[Aib]GPSSGAPPPS-NH2) | 0.135 nM | 0.153 nM | 0.0439 nM | 5.81 nM | 10.2 nM | 0.0895 nM |  |  |  |  |  |  |  |  |
| CC[C@H](C)[C@H](NC(=O)[C@H](Cc1ccccc1)NC(=O)[C@H](C)NC(=O)C(C)(C)NC(=O)[C@H](CCC(N)=O)NC(=O)[C@H](C)NC(=O)[C@H](CCCCNC(=O)COCCOCCNC(=O)COCCOCCNC(=O)CC[C@H](NC(=O)CCCCCCCCCCCCCCCCCCC(=O)O)C(=O)O)NC(=O)[C@H](CCCCN)NC(=O)[C@H](CC(=O)O)NC(=O)[C@H](CC(C)C)NC(=O)[C@H](CC(C)C)NC(=O)[C@@H](NC(=O)[C@H](CO)NC(=O)[C@H](Cc1ccc(O)cc1)NC(=O)[C@H](CC(=O)O)NC(=O)[C@H](CO)NC(=O)[C@@H](NC(=O)[C@H](Cc1ccccc1)NC(=O)[C@@H](NC(=O)CNC(=O)[C@H](CCC(N)=O)NC(=O)C(C)(C)NC(=O)[C@@H](N)Cc1ccc(O)cc1)[C@@H](C)O)[C@@H](C)O)[C@@H](C)CC)C(=O)N[C@@H](CCC(=O)O)C(=O)N[C@@H](Cc1ccc(O)cc1)C(=O)N[C@@H](CC(C)C)C(=O)N[C@@H](CC(C)C)C(=O)N[C@@H](CCC(=O)O)C(=O)NCC(=O)NCC(=O)N1CCC[C@H]1C(=O)N[C@@H](CO)C(=O)N[C@@H](CO)C(=O)NCC(=O)N[C@@H](C)C(=O)N1CCC[C@H]1C(=O)N1CCC[C@H]1C(=O)N1CCC[C@H]1C(=O)N[C@@H](CO)C(N)=O [Example 16] |  |  |  |  |  |  | 3.6 mL/h/kg | 20 h | 29.1 h | 274.9 hr*kg*nmol/L/nmol | 3.8 kg*nmol/L/nmol | 11.5 nM | 16.1 nM | 0.106 nM |
| CC[C@H](C)[C@H](NC(=O)[C@H](Cc1ccccc1)NC(=O)[C@H](C)NC(=O)[C@](C)(CCCCN)NC(=O)[C@H](CCC(N)=O)NC(=O)[C@H](C)NC(=O)[C@H](CCCCNC(=O)COCCOCCNC(=O)COCCOCCNC(=O)CC[C@H](NC(=O)CCCCCCCCCCCCCCCCCCC(=O)O)C(=O)O)NC(=O)[C@H](CCCCN)NC(=O)[C@H](CC(=O)O)NC(=O)[C@H](CC(C)C)NC(=O)[C@](C)(CC(C)C)NC(=O)[C@@H](NC(=O)[C@H](CO)NC(=O)[C@H](Cc1ccc(O)cc1)NC(=O)[C@H](CC(=O)O)NC(=O)[C@H](CO)NC(=O)[C@@H](NC(=O)[C@H](Cc1ccccc1)NC(=O)[C@@H](NC(=O)CNC(=O)[C@H](CCC(N)=O)NC(=O)C(C)(C)NC(=O)[C@@H](N)Cc1ccc(O)cc1)[C@@H](C)O)[C@@H](C)O)[C@@H](C)CC)C(=O)N[C@@H](CCC(=O)O)C(=O)N[C@@H](Cc1ccc(O)cc1)C(=O)N[C@@H](CC(C)C)C(=O)N[C@@H](CC(C)C)C(=O)N[C@@H](CCC(=O)O)C(=O)NCC(=O)NCC(=O)N1CCC[C@H]1C(=O)N[C@@H](CO)C(=O)N[C@@H](CO)C(=O)NCC(=O)N[C@@H](C)C(=O)N1CCC[C@H]1C(=O)N1CCC[C@H]1C(=O)N1CCC[C@H]1C(=O)N[C@@H](CO)C(N)=O [Example 3] |  |  |  |  |  |  | 6.9 mL/h/kg | 16 h | 19.2 h | 146 hr*kg*nmol/L/nmol | 2.5 kg*nmol/L/nmol | 12 nM | 6.06 nM | 0.0446 nM |
